# Patent publication US20150306167A1, “ALPINIA SPP. EXTRACTS FOR TREATING IRRITABLE BOWEL SYNDROME” (MEDICAL AND PHARMACEUTICAL INDUSTRY TECHNOLOGY AND …, priority 2012, published 2015)
# Assays:
# [1] = tested on: 5-HTP induced visceral hypersensitivity (AWR); test: Visceral hypersensitivity by behavioral response, AWR score after 5-HTP; format: in vivo, Male Sprague-Dawley rats; details: for AWR score: body arching and lifting of pelvic structures / AWR score: lifting abdomen / AWR scores compared with control rats: 5-HTP rats; for anti-abdominal pain activity (or anti-visceral hypersensitivity): purified compounds from Alpinia oxyphylla
# Procedure: Animal Model for Evaluating Chronic Visceral Hypersensitivity by Measuring […] Withdrawal Reflex (AWR)
# In this model, behavioral response was studied by measuring the AWR, which is an involuntary motor reflex similar to visceromotor reflex. The AWR was graded with the intensity of stimulus.
# Male Sprague-Dawley rats (BioLASCO Taiwan Co., Ltd., Taiwan) were kept in an air-conditioned animal shelter at room temperature of 22° C. to 24° C. with controlled level of humidity (40% to 50%) in a 12-hour light-dark cycle. Each rat weighed between 200 to 350 g in the beginning of the test. Tap water and standard laboratory rodent chow were provided ad libitum. Unless specifically indicated, each group included 6 rats, and experiments were conducted without fasting the animals. The plant extracts and positive control drugs were given to the animals either orally or intraperitoneally.
# Behavioral studies were assessed in according to previously described procedures (AL-CHAER et al., Gastroenterology 2000, 119:1276-1285). Briefly, the rats were then housed in small Lucite cubicles (20×8×8 cm) on an elevated Plexiglas platform and allowed to wake up and adapt (1 hr). Animal was injected subcutaneously with a dose of 5-HTP (10 mg/kg) to induce visceral hypersensitivity, and behavioral response was studied by measuring the AWR. Measurement of the AWR consisted of visual observation of the animal response by blinded observers and assignments of an AWR score: 0, no behavioral response; 1, brief head movement followed by immobility; 2, mild contraction of abdominal muscles without lifting the abdomen off the platform; 3, strong contraction of the abdominal muscles and lifting abdomen off the platform; 4, severe contraction of the abdominal muscle manifested by body arching and lifting of pelvic structures. Behavioral measurements were repeated by two different blinded observers.
# (§1) All results are expressed as means±STD; n refers to animals in each group. Differences between animals of each group were compared by one-way
# (§2) ANOVA followed by Dunnett's t test. A p value less than or equal to 0.05 was considered to be statistically significant.
# [2] = tested on: 5-HTP induced diarrhea and/or abnormal defecation; test: 5-HTP induced diarrhea and/or abnormal defecation animal model; format: in vivo, Male ICR mice; details: for 5-HTP induced diarrhea (diarrhea score): FIG. 12A; for 5-HTP induced diarrhea (diarrhea score) / number of stools excreted: N=5 mice/group; for number of stools excreted: FIG. 12B, in 30 min; for anti-abnormal defecation effect / activity: purified compounds from Alpinia oxyphylla
# Procedure: Animal Model for Evaluating 5-HTP Induced Diarrhea and/or Abnormal Defecation
# Male ICR mice (BioLASCO Taiwan Co., Ltd., Taiwan) were kept in an air-conditioned animal shelter at room temperature of 22° C. to 24° C. with controlled level of humidity (40% to 50%) in a 12-hour light-dark cycle. Each mouse weighed between 30 to 34 g in the beginning of the test. Tap water and standard laboratory rodent chow were provided ad libitum.
# […], and each mice in the test group was given two doses of the Alpinia spp. extract of this invention (i.e., 500 mg/kg, 1,000 mg/kg, or 2,000 mg/kg) orally on day 1, and a third dose on day 2; and one dose of 5-HTP (i.p., 10 mg/kg) just 60 minutes after the administration of the third dose of the Alpinia spp. extract. In some occasions, the Alpinia spp. extracts of this invention were given intraperitoneally instead of orally. For comparison purpose, loperamide hydrochloride (oral; 2 mg/kg), ondansteron hydrochloride (oral; 2 mg/kg) or graniserton hydrochloride (oral; 2 mg/kg) were given once respectively to the control animals just 30 minutes prior to the administration of 5-HTP. Thirty minutes after 5-HTP injection, defecation of each animal was observed, with number of stools excreted for 30 min and diarrhea score respectively recorded accordingly. The diarrhea score was designed to describe consistency of stool using an arbitrary score scale from 0 to 3, with 0 representing solid form of stool, 1 representing loose form of stool, 2 representing partially liquid-like form of stool, and 3 representing watery form of stool.
# as §1, §2
# IBS patients = details: reported, cited from earlier work
compound,measurement,setting,value
"CN1C2CCCC1CC(NC(=O)c1nn(C)c3ccccc13)C2 (stereo not shown) [Granisetron, granisetron, reference compound]",AWR score: body arching and lifting of pelvic structures,"[1]; 100 μg/kg i.p., n = 1, Table 1",1.90
same,AWR score: lifting abdomen,"[1]; 100 μg/kg i.p., n = 1, Table 1",2.80
"C=C(C)[C@]1(O)CC[C@]2(C)CC(=O)C=C(C)[C@H]2C1 [PDC-2453, 7-epi-teucrenone]",5-HTP induced diarrhea (diarrhea score),[2],capable of suppressing 5-HTP induced diarrhea
same,number of stools excreted,[2],reducing the number of stools excreted
same,anti-abnormal defecation effect / activity,[2],possess anti-abnormal defecation activity
"CC(C)[C@@H]1CCC(=O)C2=C1[C@H](O)[C@](C)(O)CC2 [PDC-2454, Oxyphellenodiol A]",5-HTP induced diarrhea (diarrhea score),[2],capable of suppressing 5-HTP induced diarrhea
same,number of stools excreted,[2],reducing the number of stools excreted
same,anti-abnormal defecation effect / activity,[2],possess anti-abnormal defecation activity
"C=C(C)[C@@H]1CC[C@]2(C)CCC(=O)C(C)=C2[C@H]1O [PDC-2460, 6-α-hydroxy-7-epi-α-cyperone]",5-HTP induced diarrhea (diarrhea score),[2],capable of suppressing 5-HTP induced diarrhea
same,number of stools excreted,[2],reducing the number of stools excreted
same,anti-abnormal defecation effect / activity,[2],possess anti-abnormal defecation activity
"C=C(C)[C@@]1(O)CC[C@]2(C)CC(=O)C=C(C)[C@H]2C1 [PDC-2464, Teucrenone]",AWR score: body arching and lifting of pelvic structures,"[1]; 5 mg/kg i.p., Table 3",1.75 ± 0.16
same,AWR score: lifting abdomen,"[1]; 5 mg/kg i.p., Table 3",1.60 ± 0.11
same,AWR scores compared with control rats,[1],significantly lower
same,anti-abdominal pain activity (or anti-visceral hypersensitivity),[1],proved to possess anti-abdominal pain activity
same,5-HTP induced diarrhea (diarrhea score),[2],capable of suppressing 5-HTP induced diarrhea
same,number of stools excreted,[2],reducing the number of stools excreted
same,anti-abnormal defecation effect / activity,[2],possess anti-abnormal defecation activity
"COc1cc(O)c2c(=O)cc(-c3ccccc3)oc2c1 [PDC-2521, Tectochrysin]",anti-abnormal defecation effect / activity,[2],possess anti-abnormal defecation activity
"COc1cc(O)c2c(=O)c(O)c(-c3ccccc3)oc2c1 [PDC-2524, Isalpinin]",AWR score: body arching and lifting of pelvic structures,"[1]; 2.5 mg/kg i.p., Table 3",2.40 ± 0
same,AWR score: lifting abdomen,"[1]; 2.5 mg/kg i.p., Table 3",2.27 ± 0.06
same,AWR score: body arching and lifting of pelvic structures,"[1]; 5 mg/kg i.p., Table 3",2.10 ± 0
same,AWR score: lifting abdomen,"[1]; 5 mg/kg i.p., Table 3",1.87 ± 0.06
same,AWR score: body arching and lifting of pelvic structures,"[1]; 10 mg/kg i.p., n = 1, Table 3",1.60
same,AWR score: lifting abdomen,"[1]; 10 mg/kg i.p., n = 1, Table 3",1.20
same,AWR scores compared with control rats,[1],significantly lower
same,anti-abdominal pain activity (or anti-visceral hypersensitivity),[1],proved to possess anti-abdominal pain activity
Cc1[nH]cnc1CN1CCc2c(c3ccccc3n2C)C1=O [alosetron],IBS patients with improved clinical symptoms,IBS patients,about 50%
same,IBS patients with side effects such as constipation and ischemia colitis,IBS patients,30-35%
[H]/N=C(/NCCCCC)N/N=C/c1c[nH]c2ccc(OC)cc12 [tegaserod],therapeutic effects on IBS,IBS patients,limited therapeutic effects on IBS
same,risk of IBS patients in developing cardiovascular diseases,IBS patients; retracted from the market in 2007,increases significantly
